Molecules are shown by their SMILES. Entries after “also recorded” stand apart in the source; their conditions may differ.

Series [1] concerns the target T1, UGT1A1 (Homo sapiens, UniProt P22309).
T1 sequence (P22309 26-533): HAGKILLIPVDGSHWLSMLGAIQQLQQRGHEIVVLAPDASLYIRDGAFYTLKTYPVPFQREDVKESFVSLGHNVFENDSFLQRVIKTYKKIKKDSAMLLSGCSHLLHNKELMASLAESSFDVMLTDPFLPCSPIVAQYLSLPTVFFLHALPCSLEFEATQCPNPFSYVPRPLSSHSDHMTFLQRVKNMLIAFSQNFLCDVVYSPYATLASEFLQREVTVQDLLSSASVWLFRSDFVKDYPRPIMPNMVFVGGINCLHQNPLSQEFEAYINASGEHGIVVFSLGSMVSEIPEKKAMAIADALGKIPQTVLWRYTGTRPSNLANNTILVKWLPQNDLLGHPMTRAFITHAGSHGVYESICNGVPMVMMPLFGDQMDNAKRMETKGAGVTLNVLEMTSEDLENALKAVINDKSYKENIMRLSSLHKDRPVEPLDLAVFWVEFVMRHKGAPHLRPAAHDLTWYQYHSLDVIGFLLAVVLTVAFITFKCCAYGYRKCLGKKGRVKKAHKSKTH
The series can be described thus: Inhibition of 4-MU glucuronidation by recombinant UGT1A1. As to conditions: for activity at 120 min, 100 µM: human, recombinant UGT1A1, pH 7.4, probe 4-MU.

Series [2] concerns the target T2, UGT1A7 (Homo sapiens, UniProt Q9HAW7).
T2 sequence (Q9HAW7 26-530): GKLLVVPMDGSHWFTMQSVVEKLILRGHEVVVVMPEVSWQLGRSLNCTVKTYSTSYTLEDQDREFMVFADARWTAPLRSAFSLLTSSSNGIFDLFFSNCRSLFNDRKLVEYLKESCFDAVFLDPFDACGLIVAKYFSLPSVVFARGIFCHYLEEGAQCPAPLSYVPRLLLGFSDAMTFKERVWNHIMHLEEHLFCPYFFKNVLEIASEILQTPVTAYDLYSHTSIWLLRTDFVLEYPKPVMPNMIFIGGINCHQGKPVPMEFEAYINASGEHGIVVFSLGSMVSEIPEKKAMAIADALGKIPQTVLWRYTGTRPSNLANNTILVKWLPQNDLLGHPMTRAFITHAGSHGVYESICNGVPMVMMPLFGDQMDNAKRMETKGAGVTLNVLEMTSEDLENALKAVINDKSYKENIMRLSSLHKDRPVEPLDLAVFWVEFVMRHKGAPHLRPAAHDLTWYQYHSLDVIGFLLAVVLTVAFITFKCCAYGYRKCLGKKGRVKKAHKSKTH
Kind of series: Inhibition of 4-MU glucuronidation by recombinant UGT1A7. Particulars: for activity at 30 min, 100 µM: human, recombinant UGT1A7, pH 7.4, probe 4-MU.

Series [3] has as its target T3, UGT1A6 (Homo sapiens, UniProt P19224).
T3 construct: purchased BD Gentest (Woburn, MA); host or cells: baculovirus-infected insect cells
T3 sequence (P19224 27-532): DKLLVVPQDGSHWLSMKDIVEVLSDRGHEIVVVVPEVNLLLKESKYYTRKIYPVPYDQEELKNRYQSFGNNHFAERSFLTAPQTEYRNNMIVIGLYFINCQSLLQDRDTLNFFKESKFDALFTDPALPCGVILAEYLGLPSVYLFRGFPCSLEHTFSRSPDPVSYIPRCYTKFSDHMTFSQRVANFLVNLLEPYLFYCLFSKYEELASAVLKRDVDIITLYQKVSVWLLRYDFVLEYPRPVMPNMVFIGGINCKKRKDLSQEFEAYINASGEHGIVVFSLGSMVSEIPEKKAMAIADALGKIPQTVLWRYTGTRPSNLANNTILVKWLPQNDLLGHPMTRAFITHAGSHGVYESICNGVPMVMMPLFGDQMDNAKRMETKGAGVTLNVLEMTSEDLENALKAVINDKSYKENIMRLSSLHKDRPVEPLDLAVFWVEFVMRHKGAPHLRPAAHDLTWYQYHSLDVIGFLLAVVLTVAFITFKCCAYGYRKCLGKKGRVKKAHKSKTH
The series can be described thus: Inhibition of 4-MU glucuronidation by recombinant UGT1A6. Format: in vitro ADME. As to conditions: recombinant UGT1A6, pH 7.4, probe 4-MU, 100 μM inhibitor, 4-MU substrate, positive control diclofenac, read-out: Remaining activities (%) of UGT1A6.

Series [4] deals with T4, UGT2B7 (Homo sapiens, UniProt P16662).
T4 sequence (P16662 24-529): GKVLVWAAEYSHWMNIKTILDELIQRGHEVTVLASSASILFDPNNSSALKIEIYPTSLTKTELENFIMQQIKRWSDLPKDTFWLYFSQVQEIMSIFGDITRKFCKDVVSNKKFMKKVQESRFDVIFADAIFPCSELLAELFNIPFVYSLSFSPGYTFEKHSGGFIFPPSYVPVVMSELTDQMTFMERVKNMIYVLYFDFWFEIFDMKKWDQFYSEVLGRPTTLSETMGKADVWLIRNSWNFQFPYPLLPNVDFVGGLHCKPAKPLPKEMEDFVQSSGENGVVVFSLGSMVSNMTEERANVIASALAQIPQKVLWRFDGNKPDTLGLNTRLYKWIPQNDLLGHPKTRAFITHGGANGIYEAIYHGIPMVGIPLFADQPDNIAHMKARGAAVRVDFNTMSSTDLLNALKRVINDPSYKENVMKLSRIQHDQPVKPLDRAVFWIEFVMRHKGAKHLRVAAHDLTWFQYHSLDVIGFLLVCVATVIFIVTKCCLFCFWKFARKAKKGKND
The series can be described thus: Inhibition of 4-MU glucuronidation by recombinant UGT2B7. As to conditions: recombinant UGT2B7, pH 7.4, probe 4-MU.

Series [5] concerns the target T5, UGT2B17 (Homo sapiens, UniProt O75795).
T5 sequence (O75795 24-530): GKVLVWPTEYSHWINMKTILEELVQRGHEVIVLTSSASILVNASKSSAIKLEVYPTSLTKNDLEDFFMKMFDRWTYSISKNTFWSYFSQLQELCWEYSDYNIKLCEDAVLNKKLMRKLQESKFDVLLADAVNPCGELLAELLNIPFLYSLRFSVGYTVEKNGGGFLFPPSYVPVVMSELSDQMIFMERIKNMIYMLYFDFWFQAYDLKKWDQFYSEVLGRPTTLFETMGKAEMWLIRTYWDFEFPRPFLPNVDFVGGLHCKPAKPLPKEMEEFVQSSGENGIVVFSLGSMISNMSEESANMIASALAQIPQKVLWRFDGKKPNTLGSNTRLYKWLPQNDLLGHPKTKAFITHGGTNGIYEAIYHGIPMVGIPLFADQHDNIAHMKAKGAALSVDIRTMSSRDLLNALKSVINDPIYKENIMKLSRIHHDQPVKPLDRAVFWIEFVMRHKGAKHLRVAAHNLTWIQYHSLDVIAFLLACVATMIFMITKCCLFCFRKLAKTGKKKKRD
The series can be described thus: Inhibition of 4-MU glucuronidation by recombinant UGT2B17. As to conditions: recombinant UGT2B17, pH 7.4, probe 4-MU.

Consider `CS(=O)(=O)CCNCc1ccc(-c2ccc3ncnc(Nc4ccc(OCc5cccc(F)c5)c(Cl)c4)c3c2)o1` [Lapatinib, lapatinib], for which the “inhibition type, UGT1A1” value in series [1] (4-MU substrate) is listed as “competitive”. Further, the activity at 120 min, 100 µM in series [1] is 30.8 ± 11%; in series [4], 90.5 ± 1%; in series [5], 94.8 ± 5.7%. Further, in series [2] (4-MU substrate), the “inhibition type, UGT1A7” value is on record as “non-competitive; also recorded: noncompetitive”. The activity at 30 min, 100 µM in series [2] was 37.7 ± 9.3%; in series [3], 88.4 ± 5.9%.
For `CNC(=O)c1ccccc1Sc1ccc2c(/C=C/c3ccccn3)n[nH]c2c1` [Axitinib, axitinib], the values for the activity at 120 min, 100 µM in series [1], in series [4] and in series [5] were 56.7 ± 3.4%, 55.9 ± 9.7% and 55.9 ± 0.3%, respectively. Besides, the IC50 – broadly, the concentration at which inhibition is half-maximal – in series [2] was determined as 3.3 ± 0.7 µM. Further, the activity at 30 min, 100 µM in series [2] was 25 ± 2.5%; in series [3] it was 85.8 ± 3.5%.
Consider `COc1cc2c(Nc3ccc(Br)cc3F)ncnc2cc1OCC1CCN(C)CC1` [Vandetanib, vandetanib], for which the activity at 120 min, 100 µM in series [1] amounted to 48.9 ± 4.9%; in series [4], 49.8 ± 3.7%; in series [5], 69.7 ± 3.1%. Also, in series [2], the 50% inhibitory concentration (IC50) was found to be 38.9 ± 4.3 µM. Further, the activity at 30 min, 100 µM was 22.7 ± 2.7% in series [2] and 55.1 ± 1.1% in series [3].
